This note sets out measurements from patent US9359338B2, “Cyclopropanecarboxamido-substitute aromatic compounds as anti-tumor agents” (Crown Bioscience Inc. (Taiwan), priority 2012, dated 2016).

Read-outs that look alike come from different tables or passages of the source.

For assay [1], the system named is pERK in MDA-MB-231 cells. Description: Inhibitory activity at pERK (In Cell Western, MDA-MB-231 cells). It counts as cell-based. The procedure, abridged:
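MDA-MB-231 cells were treated 2 h at 37 °C with 8 compound concentrations in 3-fold dilutions from 30 μM top (0.3% DMSO, DMEM with 0.1% BSA). Cells were then fixed, methanol-permeabilized and immunostained for pERK with PI counterstain. Fluorescence was read on Acumen and IC50 calculated.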

For assay [2], the target named is KDR kinase (790-1356 AA) (Homo sapiens (Human), UniProt P35968). Description: Inhibitory activity at KDR kinase (Lance Ultra Ulight-TK assay). It counts as biochemical. The procedure, abridged: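 TR-FRET (Eu-anti-phosphotyrosine PT66) with 20 nM KDR preincubated with compound 20 min at 30 °C in HEPES pH 7.5 buffer with Mg2+/Mn2+, 0.5% DMSO.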
Chain of KDR kinase (790-1356 AA) (P35968 790-1356): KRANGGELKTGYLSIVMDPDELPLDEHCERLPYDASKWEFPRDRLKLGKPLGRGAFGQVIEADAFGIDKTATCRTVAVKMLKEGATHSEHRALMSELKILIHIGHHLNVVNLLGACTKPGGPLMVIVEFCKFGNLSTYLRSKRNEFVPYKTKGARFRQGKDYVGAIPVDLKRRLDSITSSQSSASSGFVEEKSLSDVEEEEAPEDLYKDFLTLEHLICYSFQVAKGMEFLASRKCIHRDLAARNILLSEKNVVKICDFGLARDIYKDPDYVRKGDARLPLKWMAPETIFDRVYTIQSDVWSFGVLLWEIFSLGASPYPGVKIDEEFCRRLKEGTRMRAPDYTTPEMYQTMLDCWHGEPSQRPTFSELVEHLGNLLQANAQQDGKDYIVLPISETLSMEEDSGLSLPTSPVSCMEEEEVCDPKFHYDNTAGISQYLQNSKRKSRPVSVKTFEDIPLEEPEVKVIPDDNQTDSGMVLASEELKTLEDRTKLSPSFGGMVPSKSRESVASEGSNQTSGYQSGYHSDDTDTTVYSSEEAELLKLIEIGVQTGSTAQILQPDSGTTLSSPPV
Assay [3] addresses B-Raf kinase (Homo sapiens (Human), UniProt P15056). Nature of the assay: Inhibitory activity at B-Raf kinase (ADP-GLO assay). It counts as biochemical. The procedure: Inhibitory Activity of Compounds at B-Raf Kinase
• [Experimental method]: Use ADP-GLO™ assay kit from Promega to evaluate the inhibitory activity of compounds at B-Raf • [Instrument]: PerKinElmer's ENVISION plate reader • [Material]: Optiplate-384 well plate (PerKinElmer), kinase buffer (50 mM Hepes pH7.5, 1 mM EGTA, 2 mM DTT, 10 mM Mg^2+, 0.05% BSA), B-Raf kinase (Millipore, catalogue #14-530-K), GST-MEK1 substrate (Carna, catalogue #07-141-10), Super pure ATP (Promega), ADP-GLO™ assay kit (Promega, catalogue # V9102), DMSO (Sigma, catalogue #34869), purified water (Millipore, type: Milli-Q). • [Study conditions]: Mix B-Raf kinase (final concentration: 5 nM) and compound (DMSO final concentration: 0.25%) and preincubate at 30° C. for 20 min, then add ATP (final concentration: 6 μM) and reaction substrate (final concentration: 30 nM), React for 2 hrs at 30° C. After reaction, add ADP-GLO™ reagent, react for 40 min at room temperature, then add ADP-GLO™ detecting agent, react for 30 min at room temperature. After that, use ENVSION to measure the […]. • [Samples]: Compounds in the examples and Sorafenib (positive control) • [Data analysis]: Use CBIS data analysis software to calculate IC50 values
(In general: ADP-Glo turns the ADP formed in a reaction into a luminescent signal.)

The subject of assay [4] is PLC-PRF-5 cells. Description: Inhibition of proliferation of PLC-PRF-5 cells (ATPlite). It counts as cell-based. To be noted: Homo sapiens. A digest of the protocol: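 PLC-PRF-5 cells in DMEM/10% FBS, seeded 2 h before compound; 8-point 3-fold dilutions from 30 μM final top, 0.3% DMSO. After 96 h at 37 °C, 5% CO2, ATP content read by ATPlite luminescence; IC50 calculated.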
In general terms: In ATP-based viability assays light output follows the ATP content of the culture.

Where [5] appears, read: Homo sapiens, MDA-MB-231, MDA-MB-231 cells, read-out: MDA-MB-231 pERK IC50.
[6] abbreviates: PLC-PRF-5, PLC-PRF-5 cells, read-out: PLC-PRF-5 cell proliferation IC50.
Where [7] appears, read: Homo sapiens, MDA-MB-231, read-out: MDA-MB-231 pERK IC50.
[8] abbreviates: PLC-PRF-5, read-out: PLC-PRF-5 cell proliferation IC50.

Chain of B-Raf kinase (P15056 416-766): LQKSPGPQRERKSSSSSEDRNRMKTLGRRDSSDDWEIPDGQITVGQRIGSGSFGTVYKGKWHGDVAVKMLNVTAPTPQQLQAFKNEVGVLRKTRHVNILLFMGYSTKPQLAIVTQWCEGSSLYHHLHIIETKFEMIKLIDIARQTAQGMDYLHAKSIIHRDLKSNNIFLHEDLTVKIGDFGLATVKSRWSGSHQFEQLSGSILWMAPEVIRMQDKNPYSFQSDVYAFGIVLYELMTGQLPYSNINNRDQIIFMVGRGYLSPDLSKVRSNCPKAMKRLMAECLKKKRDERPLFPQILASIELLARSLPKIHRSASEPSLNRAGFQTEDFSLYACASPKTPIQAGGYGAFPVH

On to `CC(F)(F)c1cccc(NC(=O)Nc2ccc(Oc3ccnc(NC(=O)C4CC4)c3)cc2F)c1` [Exe. 217], for which the IC50 in assay [1] (setting [5]) stood at 2.3 nM; in assay [2], 9.9 nM; in assay [3], 8.9 nM; in assay [4] (setting [6]), 178 nM.
`O=C(Nc1ccc(F)c(OC(F)(F)F)c1)Nc1ccc(Oc2ccnc(NC(=O)C3CC3)c2)cc1F` [Exe. 215]: the IC50 was 14.5 nM in assay [1] (setting [5]), 13.2 nM in assay [2], 19 nM in assay [3] and 618 nM in assay [4] (setting [6]).
Regarding `O=C(Nc1ccc(Oc2ccnc(NC(=O)C3CC3)c2)c(F)c1)Nc1cc(C(F)(F)F)ccc1Cl` [Exe. 157], the IC50 is 34.7 nM in assay [1] (setting [5]), 5.9 nM in assay [2], 43 nM in assay [3] and 156 nM in assay [4] (setting [6]).
As to `Cc1cc(NC(=O)Nc2ccc(F)c(C(C)(F)F)c2)ccc1Oc1cc(NC(=O)C2CC2)ncn1` [Exe. 118], the IC50 in assay [1] (setting [5]) was found to be 55.3 nM; in assay [2] it was 7.4 nM; in assay [3], 293 nM; in assay [4] (setting [6]), 706 nM.
As to `Cc1cc(NC(=O)Nc2ccc(Cl)c(C(F)(F)F)c2)ccc1Oc1cc(NC(=O)C2CC2)ncn1` [Exe. 010], the IC50 was determined as 43.1 nM in assay [1] (setting [5]), 13.7 nM in assay [2], 97 nM in assay [3] and 4350 nM in assay [4] (setting [6]).
The like results for `Cc1cc(Oc2ccnc(NC(=O)C3CC3)c2)ccc1NC(=O)Nc1ccc(F)c(C(F)(F)F)c1` [Exe. 191] were, in that order, 9.4 nM, 11.8 nM, 10 nM and 2530 nM.
Consider `CN1CCN(Cc2cc(NC(=O)Nc3ccc(Oc4ccnc(NC(=O)C5CC5)c4)cc3)cc(C(F)(F)F)c2)CC1` [Exe. 064], for which the results for the IC50 in assay [2], in assay [3] and in assay [4] (setting [6]) were 11.9 nM, 4.6 nM and 610 nM, respectively.
For the compound `Cc1cc(Oc2ccnc(NC(=O)C3CC3)c2)ccc1NC(=O)Nc1ccc(Cl)c(C(F)(F)F)c1` [Exe. 023], the IC50 came out at 6.9 nM in assay [1] (setting [5]), 10.5 nM in assay [2], 15 nM in assay [3] and 4170 nM in assay [4] (setting [6]).
As to `Cc1cc(NC(=O)Nc2ccc(Cl)c(C(C)(F)F)c2)ccc1Oc1ccnc(NC(=O)C2CC2)c1` [Exe. 235], the IC50 in assay [1] (setting [5]) was 12.2 nM; in assay [2] it was 13.4 nM; in assay [3] it was 22 nM; in assay [4] (setting [6]) it was 1290 nM.
On to `N#Cc1ccc(NC(=O)Nc2ccc(Oc3ccnc(NC(=O)C4CC4)c3)c(F)c2)cc1C(F)(F)F` [Exe. 062], for which the IC50 in assay [1] (setting [7]) worked out at 29.4 nM; in assay [2] it was 7.18 nM; in assay [3], 7 nM; in assay [4] (setting [8]), 3050 nM.
On to `O=C(Nc1cnc(Oc2ccnc(NC(=O)C3CC3)c2)c(F)c1)Nc1ccc(Cl)c(C(F)(F)F)c1` [Exe. 025], for which the IC50 in assay [1] (setting [5]) was determined as 71.6 nM; in assay [2] it was 14.9 nM; in assay [3] it was 9.1 nM; in assay [4] (setting [6]) it was 371 nM.
The like results for `CS(=O)(=O)c1cc(NC(=O)Nc2ccc(Oc3ccnc(NC(=O)C4CC4)c3)cc2)cc(C(F)(F)F)c1` [Exe. 145] were, in that order, 20.7 nM, 7.6 nM, 5.1 nM and 1670 nM.
For `CC(F)(F)c1cc(NC(=O)Nc2ccc(Oc3cc(NC(=O)C4CC4)ncn3)cc2F)ccc1Cl` [Exe. 110] the same measures were 13.4 nM, 7.3 nM, 24 nM and 1580 nM.
For `O=C(Nc1ccc(Oc2ccnc(NC(=O)C3CC3)c2)cc1)Nc1ccc(F)c(C(F)(F)F)c1` [Exe. 138] the same measures were 9.1 nM, 10.5 nM, 26 nM and 1510 nM.
For `O=C(Nc1cc(N2CCC(O)CC2)cc(C(F)(F)F)c1)Nc1ccc(Oc2ccnc(NC(=O)C3CC3)c2)c(F)c1` [Exe. 051], the IC50 in assay [1] (setting [5]) amounted to 33.9 nM; in assay [2], 5.2 nM; in assay [3], 23.6 nM; in assay [4] (setting [6]), 749 nM.
Consider `CC(F)(F)c1cncc(NC(=O)Nc2ccc(Oc3ccnc(NC(=O)C4CC4)c3)c(F)c2)c1` [Exe. 056], for which the IC50 in assay [1] (setting [5]) worked out at 39.7 nM; in assay [2], 17.5 nM; in assay [3], 65 nM; in assay [4] (setting [6]), 110 nM.
The like results for `CN1CCC(Oc2cc(NC(=O)Nc3ccc(Oc4ccnc(NC(=O)C5CC5)c4)c(F)c3)cc(C(F)(F)F)c2)C1` (stereo not drawn) [Exe. 038] were, in that order, 23.5 nM, 8.2 nM, 5.3 nM and 130 nM.
For `O=C(Nc1ccc(Oc2ccnc(NC(=O)C3CC3)c2)cc1)Nc1ccc(Cl)c(C(F)(F)F)c1` [Exe. 137] the same measures were 7.8 nM, 10.2 nM, 11.3 nM and 5960 nM.
Take `CC1CN(c2cc(NC(=O)Nc3ccc(Oc4ccnc(NC(=O)C5CC5)c4)c(F)c3)cc(C(F)(F)F)c2)CC(C)O1` (stereo not drawn) [Exe. 047]: the IC50 in assay [1] (setting [5]) was determined as 53.3 nM; in assay [2] it was 6.2 nM; in assay [3], 73.6 nM; in assay [4] (setting [6]), 682 nM.
For `O=C(Nc1ccc(Oc2ccnc(NC(=O)C3CC3)c2)c(F)c1)Nc1cc(C(F)(F)F)ncn1` [Exe. 170] the same measures were 31.6 nM, 5.6 nM, 96 nM and 230 nM.
Consider `O=C(Nc1ccc(Oc2ccnc(NC(=O)C3CC3)c2)c(F)c1)Nc1ccc(Cl)c(C(F)(F)F)c1` [Exe. 022], for which the IC50 in assay [1] (MDA-MB-231 cells, read-out: MDA-MB-231 pERK IC50) is 19.5 nM; in assay [2], 4.3 nM; in assay [3] it was 3.6 nM; in assay [4] (setting [6]) it was 1710 nM.
As to `O=C(Nc1cccc(OC(F)(F)F)c1)Nc1ccc(Oc2ccnc(NC(=O)C3CC3)c2)c(F)c1` [Exe. 175], the IC50 in assay [1] (setting [5]) was 30.5 nM; in assay [2] it was 4.9 nM; in assay [3] it was 9.8 nM; in assay [4] (setting [6]) it was 270 nM.
As for `Cc1cc(Oc2ccnc(NC(=O)C3CC3)c2)ccc1NC(=O)Nc1cccc(OC(F)(F)F)c1` [Exe. 194], the IC50 was found to be 9.5 nM in assay [1] (setting [5]), 10.5 nM in assay [2], 8.8 nM in assay [3] and 2320 nM in assay [4] (setting [6]).
The like results for `CC(=O)Nc1cc(NC(=O)Nc2ccc(Oc3ccnc(NC(=O)C4CC4)c3)c(F)c2)cc(C(F)(F)F)c1` [Exe. 044] were, in that order, 29.8 nM, 14.2 nM, 13 nM and 752 nM.
For `O=C(Nc1cccc(C(F)(F)F)c1)Nc1ccc(Oc2ccnc(NC(=O)C3CC3)c2)c(F)c1` [Exe. 061], the IC50 in assay [1] (setting [5]) was 26.3 nM; in assay [2] it was 3.73 nM; in assay [3] it was 6.3 nM; in assay [4] (setting [6]), 211 nM.
For `O=C(Nc1ccc(Oc2ccnc(NC(=O)C3CC3)c2)c(F)c1)Nc1cc(Cl)ccc1F` [Exe. 184] the same measures were 310 nM, 7.6 nM, 73.4 nM and 610 nM.
As to `N#Cc1ccc(NC(=O)Nc2ccc(Oc3ccnc(NC(=O)C4CC4)c3)cc2)cc1C(F)(F)F` [Exe. 139], the IC50 in assay [1] (setting [7]) amounted to 10.9 nM; in assay [2] it was 10 nM; in assay [3], 13 nM; in assay [4] (setting [8]), 654 nM.
Take `Cc1ccc(Oc2ccnc(NC(=O)C3CC3)c2)cc1NC(=O)Nc1cc(C(C)(F)F)ccc1F` [Exe. 227]: the IC50 in assay [1] (setting [5]) was 34.4 nM; in assay [2], 17.2 nM; in assay [3], 27 nM; in assay [4] (setting [6]) it was 17800 nM.
As for `Cc1cc(Oc2ccnc(NC(=O)C3CC3)c2)ncc1NC(=O)Nc1cc(C(F)(F)F)ccc1F` [Exe. 127], the IC50 in assay [1] (setting [5]) was 11.6 nM; in assay [2] it was 11.8 nM; in assay [3], 7.2 nM; in assay [4] (setting [6]), 642 nM.
Regarding `N#Cc1ccc(NC(=O)Nc2ccc(Oc3ccnc(NC(=O)C4CC4)c3)cc2F)cc1Cl` [Exe. 221], the IC50 in assay [1] (setting [7]) stood at 7.8 nM; in assay [2], 6.7 nM; in assay [3], 11 nM; in assay [4] (setting [8]), 1270 nM.
In the case of `O=C(Nc1cccc(C(F)(F)F)c1)Nc1ccc(Oc2ccnc(NC(=O)C3CC3)c2)cc1F` [Exe. 211], the IC50 in assay [1] (setting [5]) came to 2.3 nM; in assay [2] it was 7.8 nM; in assay [3], 6.4 nM; in assay [4] (setting [6]), 190 nM.
